Read-outs that look alike come from different tables or passages of the source. Where a SMILES comes first, the peptide text is derived from it. Bridges are numbered along the chain shown (N, C = ends). [ ]: non-standard residue; d: D form. Tyr(3-tBu) = CC(C)(C)c1cc(C[CH](N)C(=O)O)ccc1O; βAla = NCCC(=O)O

The conditions of series [1]: amide bond, 25.0 °C.
For series [2], the system named is motilin-induced contraction of a sample of the longitudinal muscle of the duodenum. The series is described as follows: Contraction inhibition test: motilin-induced contraction of rabbit longitudinal duodenal muscle. It counts as cell-based. Particulars: Oryctolagus cuniculus; concentration-dependent contraction induced by motilin; rabbit duodenal specimen in Krebs solution at 28° C.; read-out: Contraction inhibition test pA2 (converted). As for the experimental part: The effect of compounds of the present invention on motilin-induced contraction of a sample of the longitudinal muscle of the duodenum extracted from a rabbit was tested as follows.
A duodenal specimen (5×15 mm) extracted from a killed rabbit was suspended in the direction of the longitudinal muscle in an incubator at 28° C. filled with Krebs solution (10 ml organ bath). A mixed gas (95% O2, 5% CO2) was continuously passed through the Krebs solution and the contraction of the duodenal specimen was isotonically recorded (under a load of 1 g) via an isotonic transducer (ME-3407, ME Commercial, Tokyo, Japan). The extent of contraction of the duodenal specimen was expressed as a percentage to the contraction induced by acetylcholine at a concentration of 10^−4 M.
The effect of the compounds synthesized in Examples 1–8 and 10 on the concentration-dependent contraction induced by motilin added into the incubator was determined to calculate pA2 (see “Drug receptors” edited by Takayanagi, published by Nanzando). As a comparative example, the results of the compound of formula (5) are also shown.

In series [3] the target is T1, motilin receptors (Oryctolagus cuniculus, UniProt G1T803).
T1 construct: A protein solution was prepared by homogenizing the duodenum isolated from a killed rabbit; from tissue; host or cells: rabbit duodenum, mucosa stripped, homogenate
T1 sequence (G1T803 1-400): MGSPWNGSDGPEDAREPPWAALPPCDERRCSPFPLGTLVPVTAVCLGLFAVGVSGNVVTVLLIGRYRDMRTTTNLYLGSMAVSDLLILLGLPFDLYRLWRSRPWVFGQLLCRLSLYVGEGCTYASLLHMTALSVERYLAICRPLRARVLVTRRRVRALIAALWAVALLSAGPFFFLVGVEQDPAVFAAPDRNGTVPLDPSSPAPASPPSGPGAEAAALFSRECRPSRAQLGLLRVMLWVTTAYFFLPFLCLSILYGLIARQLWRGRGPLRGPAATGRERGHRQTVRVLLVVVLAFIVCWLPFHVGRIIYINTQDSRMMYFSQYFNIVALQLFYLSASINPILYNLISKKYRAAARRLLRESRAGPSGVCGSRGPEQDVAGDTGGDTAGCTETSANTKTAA
The series is described as follows: Motilin receptor binding test (125I motilin, rabbit duodenum protein solution). The settings on record: concentration inhibiting 50% of specific binding of 25 pM 125I motilin; rabbit duodenum homogenate, 2 hours at 25° C. As for the experimental part:
Motilin receptor binding activities of compounds of the present invention were tested as follows [Vantrappen et al., Regul.
A protein solution was prepared by homogenizing the duodenum isolated from a killed rabbit in 50 mM Tris after stripping the mucosa. […] The difference between the radioactivity of the protein solution incubated alone and the radioactivity of the protein solution incubated with a large excess of motilin (10^−7 M) was recorded as specific binding of motilin to motilin receptors.

The conditions of series [4]: amide bond, BOP, 25.0 °C.
The mark [5] stands for this setting: 14-membered ring, BOP, DMF/pyridine 1:1, 9.9 mM, 2 steps.

`CC(C)(C)c1cc(C[C@@H]2NC(=O)C(N)CCCCNC(=O)CCNC2=O)ccc1O` (stereo partly drawn) came in with a ring closure, isolated yield in series [1] (from Z-Lys-Tyr(3-tBu)-bAla-OH?, 14-membered ring, BOP/pyridine, MeCN/pyridine 1:1, 10.2 mM, 3 steps) of 90%.

As for `CC(C)(C)c1cc(CC2NC(=O)C(NC(=O)C(N)Cc3ccccc3)CCCCNC(=O)CCNC2=O)ccc1O` (stereo not drawn) [Comparative example, reference compound] (H-FK[Tyr(3-tBu)][βAla]; lactam 2-C; configuration not given here), the Kb in series [2] was 63.1 nM. Moreover, in series [3], the IC50 was 10 nM.

“(2S-(2S,13S))-2-tert-butoxycarbonylamino-N-(2-(3-tert-butyl-4-hydroxyphenylmethyl)-4-methyl-1,4,8-triaza-3,7,14-trioxocyclotetradec-13-yl)-3-(4-fluorophenyl)-N-methylpropionamide”: the ring closure, isolated yield in series [1] (14-membered ring, BOP/pyridine, DMF/pyridine 1:1, 10.3 mM) stood at 60%.

Turning to `CN1CCC[C@H](N(C)C(=O)[C@@H](N)Cc2ccc(F)cc2)C(=O)N[C@@H](Cc2ccc(O)c(C(C)(C)C)c2)C(=O)NCCCC1=O` [Example 9, (2S-(2S,13S))-2-amino-N-(2-(3-tert-butyl-4-hydroxyphenylmethyl)-9,N-dimethyl-1,4,9-triaza-3,8,14-trioxocyclotetradec-13-yl)-3-(4-fluorophenyl)propionamide], the half-maximal inhibitory concentration (IC50) in series [3] came to 5.3 nM.

For “(2S-(2S,13S))-2-(tert-butoxycarbonylamino)-N-(2-(3-tert-butyl-4-hydroxyphenylmethyl)-8-methyl-1,4, 8-triaza-3,7,14-trioxocyclotetradec-13-yl)-3-(4-fluorophenyl)-N-methylpropionamide”, the ring closure, isolated yield in series [1] (14-membered ring, BOP/pyridine, DMF/pyridine 1:1, 10.5 mM) was found to be 36%.

“(2S-(2S,13S))-2-benzyloxycarbonylamino-N-(2-(3-tert-butyl-4-hydroxyphenylmethyl)-1,4,8-triaza-3,7,14-trioxocyclotetradec-13-yl)-3-phenyl-N-methylpropionamide” returned a ring closure, isolated yield in series [1] (setting [5]) of 48%.

“(2S-(2S,13S))-2-tert-butoxycarbonylamino-N-(2-(3-tert-butyl-4-hydroxyphenylmethyl)-1,4,8-triaza-3,7,14-trioxocyclotetradec-13-yl)-3-(4-fluorophenyl)-N-methylpropionamide” came in with a ring closure, isolated yield in series [1] (14-membered ring, BOP/pyridine, DMF/pyridine 1:1, 10.1 mM) of 69%.

For the compound `CN(C(=O)[C@H](Cc1ccc(F)cc1)NC(=O)OC(C)(C)C)[C@H]1CCCCNC(=O)CNC(=O)[C@H](Cc2ccc(O)c(C(C)(C)C)c2)NC1=O`, in series [4] (from CN(C(=O)[C@H](Cc1ccc(F)cc1)NC(=O)OC(C)(C)C)[C@@H](CCCCN)C(=O)N[C@@H](Cc1ccc(O)c(C(C)(C)C)c1)C(=O)NCC(=O)O, DMF, 10.75 mM, 23.0 h, 2 steps), the ring closure, yield of all isomers came out at 60%.

Compound `CN1CCCC[C@H](N(C)C(=O)[C@H](Cc2ccc(F)cc2)NC(=O)OC(C)(C)C)C(=O)N[C@@H](Cc2ccc(O)c(C(C)(C)C)c2)C(=O)NCCC1=O` gave a ring closure, yield of all isomers in series [4] (from CNCCCC[C@@H](C(=O)N[C@@H](Cc1ccc(O)c(C(C)(C)C)c1)C(=O)NCCC(=O)O)N(C)C(=O)[C@H](Cc1ccc(F)cc1)NC(=O)OC(C)(C)C, DMF, 10.5 mM, 16.0 h) of 36%.

The compound “(2S-(2S,12S))-2-tert-butoxycarbonylamino-N-(2-(3-tert-butyl-4-hydroxyphenylmethyl)-1,4,8-triaza-3,7,13-trioxocyclotridec-12-yl)-3-(4-fluorophenyl)-N-methylpropionamide” showed a ring closure, isolated yield in series [1] (13-membered ring, BOP/pyridine, DMF/pyridine 1:1, 10.75 mM, 2 steps) of 60%.

In series [1] (15-membered ring, BOP/pyridine, DMF/pyridine 1:1, 10.1 mM), “(2S-(2S,14S))-2-(tert-butoxycarbonylamino)-N-(2-(3-tert-butyl-4-hydroxyphenylmethyl)-1,4,9-triaza-3,8,15-trioxocyclopentadec-14-yl)-3-(4-fluorophenyl)-N-methylpropionamide” returned a ring closure, isolated yield of 82%.

Compound `CN(C(=O)[C@H](Cc1ccccc1)NC(=O)OCc1ccccc1)[C@H]1CCCCNC(=O)CCNC(=O)[C@H](Cc2ccc(O)c(C(C)(C)C)c2)NC1=O` came in with a ring closure, yield of all isomers in series [4] (from CN(C(=O)[C@H](Cc1ccccc1)NC(=O)OCc1ccccc1)[C@@H](CCCCN)C(=O)N[C@@H](Cc1ccc(O)c(C(C)(C)C)c1)C(=O)NCCC(=O)O, DMF, 9.91 mM, 2 steps) of 48%.

In series [1] (14-membered ring, BOP/pyridine, DMF/pyridine 1:1, 10.0 mM, 2 steps), “(2S-(2S,13S))-2-tert-butoxycarbonylamino-N-(2-(3-tert-butyl-4-hydroxyphenylmethyl)-1-methyl-1,4,8-triaza-3,7,14-trioxocyclotetradec-13-yl)-3-(4-fluorophenyl)-N-methylpropionamide” registered a ring closure, isolated yield of 36%.

For the compound `CN(C(=O)[C@H](Cc1ccc(F)cc1)NC(=O)OC(C)(C)C)[C@H]1CCCCNC(=O)CCCNC(=O)[C@H](Cc2ccc(O)c(C(C)(C)C)c2)NC1=O`, in series [4] (from CN(C(=O)[C@H](Cc1ccc(F)cc1)NC(=O)OC(C)(C)C)[C@@H](CCCCN)C(=O)N[C@@H](Cc1ccc(O)c(C(C)(C)C)c1)C(=O)NCCCC(=O)O, DMF, 10.1 mM, 16.0 h), the ring closure, yield of all isomers stood at 82%.

Compound `CN(C(=O)[C@H](Cc1ccc(F)cc1)NC(=O)OC(C)(C)C)[C@H]1CCCCNC(=O)CCNC(=O)[C@H](Cc2ccc(O)c(C(C)(C)C)c2)N(C)C1=O` showed a ring closure, yield of all isomers in series [4] (from CN(C(=O)[C@H](Cc1ccc(F)cc1)NC(=O)OC(C)(C)C)[C@@H](CCCCN)C(=O)N(C)[C@@H](Cc1ccc(O)c(C(C)(C)C)c1)C(=O)NCCC(=O)O, DMF, 10.0 mM, 26.0 h, 2 steps) of 36%.

As for “2S-(2S,13S))-N-(8-acetyl-2-(3-tert-butyl-4-hydroxyphenylmethyl)-3,14-dioxo-1,4,8-triazacyclotetradec-13-yl)-2-tert-butoxycarbonylamino-3-(4-fluorophenyl)-N-methylpropionamide”, in series [1] (14-membered ring, BOP/pyridine, DMF/pyridine 1:1, 9.9 mM), the ring closure, isolated yield came to 55%.

Regarding `CC(=O)N1CCCC[C@H](N(C)C(=O)[C@H](Cc2ccc(F)cc2)NC(=O)OC(C)(C)C)C(=O)N[C@@H](Cc2ccc(O)c(C(C)(C)C)c2)C(=O)NCCC1`, the ring closure, yield of all isomers in series [4] (from CC(=O)N(CCCN)CCCC[C@@H](C(=O)N[C@@H](Cc1ccc(O)c(C(C)(C)C)c1)C(=O)O)N(C)C(=O)[C@H](Cc1ccc(F)cc1)NC(=O)OC(C)(C)C, DMF, 9.87 mM, 18.0 h) is 55%.

The compound `CC(C)(C)c1cc(C[C@@H]2NC(=O)[C@@H](N)CCCCNC(=O)CCNC2=O)ccc1O` gave a ring closure, yield of all isomers in series [4] (from CC(C)(C)OC(=O)CCNC(=O)[C@H](Cc1ccc(O)c(C(C)(C)C)c1)NC(=O)[C@H](CCCCNC(=O)OC(C)(C)C)NC(=O)OCc1ccccc1, acetonitrile, 10.2 mM, 21.0 h, 3 steps) of 90%.

The compound `CN1CCC(=O)NCCCC[C@H](N(C)C(=O)[C@H](Cc2ccc(F)cc2)NC(=O)OC(C)(C)C)C(=O)N[C@@H](Cc2ccc(O)c(C(C)(C)C)c2)C1=O` showed a ring closure, yield of all isomers in series [4] (from CN(CCC(=O)O)C(=O)[C@H](Cc1ccc(O)c(C(C)(C)C)c1)NC(=O)[C@H](CCCCN)N(C)C(=O)[C@H](Cc1ccc(F)cc1)NC(=O)OC(C)(C)C, DMF, 10.3 mM, 16.0 h) of 60%.

Consider `CN1CCC[C@H](N(C)C(=O)[C@H](Cc2ccc(F)cc2)NC(=O)OC(C)(C)C)C(=O)N[C@@H](Cc2ccc(O)c(C(C)(C)C)c2)C(=O)NCCCC1=O`, for which the ring closure, yield of all isomers in series [4] (from CNCCC[C@@H](C(=O)N[C@@H](Cc1ccc(O)c(C(C)(C)C)c1)C(=O)NCCCC(=O)O)N(C)C(=O)[C@H](Cc1ccc(F)cc1)NC(=O)OC(C)(C)C, DMF, 9.93 mM, 12.0 h, 2 steps) turned out to be 60%.

Turning to `CN(C(=O)[C@H](Cc1ccc(F)cc1)NC(=O)OC(C)(C)C)[C@H]1CCCCNC(=O)CCNC(=O)[C@H](Cc2ccc(O)c(C(C)(C)C)c2)NC1=O`, in series [4] (from CN(C(=O)[C@H](Cc1ccc(F)cc1)NC(=O)OC(C)(C)C)[C@@H](CCCCN)C(=O)N[C@@H](Cc1ccc(O)c(C(C)(C)C)c1)C(=O)NCCC(=O)O, DMF, 10.1 mM, 18.0 h), the ring closure, yield of all isomers is 69%.

“(2S-(2S,13S))-2-tert-butoxycarbonylamino-N-(2-(3-tert-butyl-4-hydroxyphenylmethyl)-9-methyl-1,4,9-triaza-3,8,14-trioxocyclotetradec-13-yl)-3-(4-fluorophenyl)-N-methylpropionamide” displayed a ring closure, isolated yield in series [1] (setting [5]) of 60%.

“(2S-(2S,13S))-N-(8-acetyl-2-(3-tert-butyl-4-hydroxyphenylmethyl)-3,14-dioxo-1,4,8-triazacyclotetradec-13-yl)-2-tert-butoxycarbonylamino-3-(4-fluorophenyl)-N-methylpropionamide”: the ring closure, isolated yield in series [1] (14-membered ring, BOP, DMF/pyridine 1:1, 9.9 mM) came to 55%.

For the origin of these results see US7018981B2, “Cyclic motilin receptor antagonists” (Chugai Seiyaku Kabushiki Kaisha, priority 2000, dated 2006).
